Measured values taken from ChEMBL document CHEMBL4004859, “Synthesis, antimalarial activity, heme binding and docking studies of N-substituted 4-aminoquinoline-pyrimidine molecular hybrids” (Eur J Med Chem, 2017).
Activity calls are given as the source filed them. No cut-off for these calls is given here.

Tests used:
Plasmodium falciparum [1] = experiment: Antimalarial activity against chloroquine-resistant Plasmodium falciparum W2 infected in red blood cells after 72 hrs by Malstat reagent based LDH assay; format: functional, cell-based; conditions: W2, 72 h
[2] = Selectivity index, ratio of IC50 for African green monkey Vero cells to IC50 for chloroquine-resistant Plasmodium falciparum W2 infected in red blood cells; format: toxicity, cell-based; conditions: read-out: Ratio IC50
Vero = experiment: Cytotoxicity against African green monkey Vero cells assessed as reduction in cell viability up to 10 uM after 48 hrs by neutral red assay; format: cell-based; conditions: chlorocebus sabaeus
Plasmodium falciparum [3] = experiment: Antimalarial activity against chloroquine-sensitive Plasmodium falciparum D6 infected in red blood cells after 72 hrs by Malstat reagent based LDH assay; format: functional, cell-based; conditions: D6, 72 h
[4] = Selectivity index, ratio of IC50 for African green monkey Vero cells to IC50 for chloroquine-sensitive Plasmodium falciparum D6 infected in red blood cells; format: toxicity, cell-based; conditions: read-out: Ratio IC50
[5] = Resistance index, ratio of IC50 for Plasmodium falciparum W2 infected in red blood cells to IC50 for Plasmodium falciparum D6 infected in red blood cells; format: functional
Heme [6] = experiment: Binding affinity to monomeric heme (unknown origin) assessed as mole fraction of compound required to show 1:1 stoichiometry for heme-compound complex at pH 5.6 to 7.4 by Job's plot method
Heme [7] = experiment: Binding affinity to monomeric heme (unknown origin) in DMSO/water solution up to 40 uM at pH 5.6 by titration-based UV-vis spectrophotometric analysis
mu-oxodimeric heme [8] = experiment: Binding affinity to mu-oxodimeric heme (unknown origin) in aqueous NaOH solution up to 15 uM at pH 5.8 by titration-based UV-vis spectrophotometric analysis
mu-oxodimeric heme [9] = experiment: Binding affinity to mu-oxodimeric heme (unknown origin) in aqueous NaOH solution assessed as 1:1 stoichiometry for heme-compound complex at pH 5.8 by Job's plot method

## Cc1cc(N(CCCNc2ccnc3cc(Cl)ccc23)Cc2ccco2)nc(N2CCCCC2)n1
Plasmodium falciparum [1]
  IC50: 72 nM
[2]
  selectivity ratio: > 139
Vero
  Activity: Non-Toxic
Plasmodium falciparum [3]
  IC50: 43 nM
[4]
  selectivity ratio: > 233
[5]
  Ratio IC50: 1.67

## Cc1cc(N(CCCNc2ccnc3cc(Cl)ccc23)Cc2ccco2)nc(N2CCCC2)n1
Plasmodium falciparum [1]
  IC50: 76 nM
[2]
  selectivity ratio: > 132
Vero
  Activity: Non-Toxic
Plasmodium falciparum [3]
  IC50: 44 nM
[4]
  selectivity ratio: > 222
[5]
  Ratio IC50: 1.72

## Cc1cc(N2CCCC2)nc(N(CCNc2ccnc3cc(Cl)ccc23)Cc2ccco2)n1
Plasmodium falciparum [1]
  IC50: 194 nM
[2]
  selectivity ratio: > 51.5
Vero
  Activity: Non-Toxic
Plasmodium falciparum [3]
  IC50: 60 nM
[4]
  selectivity ratio: > 167
[5]
  Ratio IC50: 3.23

## Cc1cc(Cl)nc(N(CCCNc2ccnc3cc(Cl)ccc23)Cc2ccco2)n1
Plasmodium falciparum [1]
  IC50: 506 nM
[2]
  selectivity ratio: > 19.8
Vero
  Activity: Non-Toxic
Plasmodium falciparum [3]
  IC50: 337 nM
[4]
  selectivity ratio: > 29.7
[5]
  Ratio IC50: 1.5

## Cc1cc(N(CCCNc2ccnc3cc(Cl)ccc23)Cc2ccco2)nc(N2CCOCC2)n1
Plasmodium falciparum [1]
  IC50: 257 nM
[2]
  selectivity ratio: > 38.9
Vero
  Activity: Non-Toxic
Plasmodium falciparum [3]
  IC50: 46 nM
[4]
  selectivity ratio: > 217
[5]
  Ratio IC50: 5.58

## Cc1cc(N(CCNc2ccnc3cc(Cl)ccc23)Cc2ccco2)nc(Cl)n1
Plasmodium falciparum [1]
  IC50: 75 nM
[2]
  selectivity ratio: > 133
Vero
  Activity: Non-Toxic
Plasmodium falciparum [3]
  IC50: 64 nM
[4]
  selectivity ratio: > 156
[5]
  Ratio IC50: 1.17

## Cc1cc(N2CCCCC2)nc(N(CCCNc2ccnc3cc(Cl)ccc23)Cc2ccco2)n1
Plasmodium falciparum [1]
  IC50: 197 nM
[2]
  selectivity ratio: > 50.8
Vero
  Activity: Non-Toxic
Plasmodium falciparum [3]
  IC50: 59 nM
[4]
  selectivity ratio: > 169
[5]
  Ratio IC50: 3.33

## CCN1CCN(c2nc(C)cc(N(CCNc3ccnc4cc(Cl)ccc34)Cc3ccco3)n2)CC1
Plasmodium falciparum [1]
  IC50: 40 nM
Heme [6]
  Activity (mole fraction): 0.5
[2]
  selectivity ratio: > 250
Vero
  Activity: Non-Toxic
Heme [7]
  Activity: Active
mu-oxodimeric heme [8]
  Activity: Active
Plasmodium falciparum [3]
  IC50: 38 nM
[4]
  selectivity ratio: > 263
[5]
  Ratio IC50: 1.05
mu-oxodimeric heme [9]
  Activity: Active

## Cc1cc(N(CCNc2ccnc3cc(Cl)ccc23)Cc2ccco2)nc(N2CCCCC2)n1
Plasmodium falciparum [1]
  IC50: 199 nM
[2]
  selectivity ratio: > 50.2
Vero
  Activity: Non-Toxic
Plasmodium falciparum [3]
  IC50: 61 nM
[4]
  selectivity ratio: > 164
[5]
  Ratio IC50: 3.26

## Cc1cc(N2CCN(C)CC2)nc(N(CCCNc2ccnc3cc(Cl)ccc23)Cc2ccco2)n1
Plasmodium falciparum [1]
  IC50: 48 nM
[2]
  selectivity ratio: > 208
Vero
  Activity: Non-Toxic
Plasmodium falciparum [3]
  IC50: 49 nM
[4]
  selectivity ratio: > 204
[5]
  Ratio IC50: 0.979

## Cc1cc(N2CCN(C)CC2)nc(N(CCNc2ccnc3cc(Cl)ccc23)Cc2ccco2)n1
Plasmodium falciparum [1]
  IC50: 42 nM
[2]
  selectivity ratio: > 238
Vero
  Activity: Non-Toxic
Plasmodium falciparum [3]
  IC50: 42 nM
[4]
  selectivity ratio: > 238
[5]
  Ratio IC50: 1

## CCN1CCN(c2cc(C)nc(N(CCCNc3ccnc4cc(Cl)ccc34)Cc3ccco3)n2)CC1
Plasmodium falciparum [1]
  IC50: 39 nM
[2]
  selectivity ratio: > 256
Vero
  Activity: Non-Toxic
Plasmodium falciparum [3]
  IC50: 40 nM
[4]
  selectivity ratio: > 250
[5]
  Ratio IC50: 0.975

## Cc1cc(N(CCCNc2ccnc3cc(Cl)ccc23)Cc2ccco2)nc(Cl)n1
Plasmodium falciparum [1]
  IC50: 454 nM
[2]
  selectivity ratio: > 22
Vero
  Activity: Non-Toxic
Plasmodium falciparum [3]
  IC50: 108 nM
[4]
  selectivity ratio: > 92.6
[5]
  Ratio IC50: 4.2

## Cc1cc(N2CCOCC2)nc(N(CCNc2ccnc3cc(Cl)ccc23)Cc2ccco2)n1
Plasmodium falciparum [1]
  IC50: 63 nM
[2]
  selectivity ratio: > 159
Vero
  Activity: Non-Toxic
Plasmodium falciparum [3]
  IC50: 43 nM
[4]
  selectivity ratio: > 233
[5]
  Ratio IC50: 1.46
